Experimental data: patent US9493480B2, “Monomeric trioxane amide sulfur compounds” (THE JOHNS HOPKINS UNIVERSITY, priority 2011, dated 2016)
Entries after “also recorded” stand apart in the source; their conditions may differ.

Tests used:
[1] = test system: Plasmodium berghei, ANKA malaria strain; experiment: In vivo antimalarial efficacy, single oral dose of trioxane combined with mefloquine hydrochloride in P. berghei infected mice; conditions: for cure outcome (survival to day 30 with no detectable parasites = complete cure): single oral dose of trioxane (6 mg/kg) combined with mefloquine hydrochloride (18 mg/kg); for parasitemia on day 30 after infection in surviving mice: value of one mouse where so stated; for mouse survival in words: single oral dose 100 mg/kg
Experimental: […] Rosenthal, A. S., et al., Malaria-infected Mice are Cured by a Single Oral Dose of New Dimeric Trioxane Sulfones Which are Also Selectively and Powerfully Cytotoxic to Cancer Cells. J. Med. Chem. 2009, 52, 1198-1203. Each of four mice in a group was treated orally 24 hours post infection with a single dose of 0.20 mL [(0.20 mL/1.07 mL)×0.64 mg=0.12 mg] of diluted trioxane solution, […] Alternatively, a single dose of 7.5 mg/kg of trioxane plus 15.0 mg/kg of mefloquine hydrochloride was used. The malariometrics used involved determining blood parasitemia levels, as well as monitoring the duration of animal survival compared to survival time of infected animals receiving no drug.
The average survival time of the malaria-infected animals receiving no drug was 6.8 days post infection. All of the infected mice in this study receiving the trioxane drug artemether (2b) plus mefloquine died on the average on day 18.8 post infection (Table 1, controls). Additionally, a single oral dose of artemether (6 mg/kg) plus lumefantrine (18 mg/kg) was not curative (see Table 1), with the mice dying an average of 12.5 days after infection. […]
(§1) A widely accepted indication of complete cure (i.e., 100% efficacy) is survival of animals to day 30 post infection with no detectable malaria parasites in the animals' blood at that time. It is important to note that the combination of the standard trioxane drug artemether (2b), with either mefloquine hydrochloride or lumefantrine, was not curative (Table 1, controls). […] While 3-fluoroanilide 12b was not curative, administration of 3-methylthioether 3-arteSanilide 12d at a dose of 7.5 mg/kg plus 15 mg/kg mefloquine hydrochloride achieved mouse survival through day 30 after infection; however, all four of the surviving mice appeared sick and had considerable parasitemia levels (25-50%). […] In addition, 3-arteSanilide 12d is more efficacious than 4-arteSanilide 12c. […] Replacing the sulfur atom in 12d with an oxygen atom afforded methyl ether 12p, which prolonged survival time to only 21.8 days after infection. This observation indicates the critical nature of the sulfur atom. In addition, the lipophilicity of 3-arteSanilide 12d was increased by lengthening the alkyl sulfide chain from methyl to n-propyl. 3-n-Propyl sulfide 12l, however, is much less efficacious than the curative methyl sulfide 3-arteSanilide 12d.

[2] = test system: P. falciparum (NF54) Parasites; experiment: In vitro antimalarial potencies of trioxanes against P. falciparum (NF54) parasites; format: cell-based; conditions: Plasmodium falciparum, M ± SD of at least four determinations
Experimental: Biology: In Vitro Potencies. Prompted by the unexpected in vivo efficacy of 3-arteSanilide 12d, the in vitro the intrinsic antimalarial activity, free of host-mediated factors, was assayed of compounds that differ in the oxidative state of the sulfur atom (Table 2).

P388 leukemia = conditions: NCI Report on NSC 369397, tested on 25 Oct. 1983; cited from earlier work
[3] = Overt toxicity, behavior and weight gain of treated malaria-infected mice; format: in vivo; conditions: for toxicity of single oral dose: single oral dose 100 mg/kg, no mefloquine
Experimental: as §1

[4] = Stability of the neat compound at 60° C.; format: physicochemical; conditions: absence of solvent
Text: Hydroboration-oxidation followed by oxidation of the resulting primary alcohol produced C-10 carboxylic acid 11. Posner, G. H., et al., Orally Active, Antimalarial, Anticancer, Artemisinin-derived Trioxane Dimers with High Stability and Efficacy. J. Med. Chem. 2003, 46, 1060-1065. Condensation of carboxylic acid 11 with various anilines yielded a library of C-10 monomeric trioxane anilides 12b-h, 12l, 12o-q (FIG. 2). Scale up synthesis is expected to be straightforward. Without wishing to be bound to any one particular theory, because these anilides 12b-q are C-10 non-acetal derivatives, they are more hydrolytic ally stable than the C-10 acetal first generation artemisinin derivatives, such as artemether (2b) or artesunate (2c). In the absence of solvent, neat 3-arteSanilide 12d, for example, is stable for at least 7 days at 60° C.

[5] = single oral dose 24 h post infection: trioxane 6 mg/kg + mefloquine hydrochloride 18 mg/kg, C57BL/6J male mice, 4 per group
[6] = single oral dose: trioxane 6 mg/kg + mefloquine hydrochloride 18 mg/kg
[7] = single oral dose: trioxane 7.5 mg/kg + mefloquine hydrochloride 15 mg/kg
[8] = single oral dose: trioxane 7.5 mg/kg + mefloquine hydrochloride 15 mg/kg, mice, 4 per group
[9] = single oral dose: artemether 6 mg/kg + lumefantrine 18 mg/kg
[10] = Plasmodium berghei, 72 h, single oral dose: trioxane 100 mg/kg, no mefloquine, read-out: % suppression of parasitemia (on day 3 after infection)
[11] = single oral dose: trioxane 100 mg/kg, no mefloquine
[12] = mefloquine hydrochloride alone, single oral dose 15 mg/kg
[13] = mefloquine hydrochloride alone, single oral dose 18 mg/kg

Compound	average survival (days) after infection [1, 5] [days]	% suppression of parasitemia (on day 3 after infection) [1, 6] [%]	% suppression of parasitemia (on day 3 after infection) [1, 7] [%]	average survival (days) after infection [1, 8] [days]	EC50 [2] [nM]	other results
COc1cccc(NC(=O)CC[C@H]2O[C@@H]3O[C@]4(C)CC[C@H]5[C@H](C)CC[C@@H]([C@H]2C)[C@@]35OO4)c1 [12p]	21.8	>99.9				
CCCS(=O)(=O)c1ccccc1NC(=O)CC[C@H]1O[C@@H]2O[C@]3(C)CC[C@H]4[C@H](C)CC[C@@H]([C@H]1C)[C@@]24OO3 [12n]	21.8	>99.9				
C[C@H]1[C@@H](CCC(=O)Nc2ccc(S(C)(=O)=O)cc2)O[C@@H]2O[C@]3(C)CC[C@H]4[C@H](C)CC[C@@H]1[C@@]24OO3 [12i]			>99.9	22.5		
C[C@@H]1CC[C@H]2[C@@H](C)C(=O)O[C@@H]3O[C@@]4(C)CC[C@@H]1[C@]32OO4 [Artemisinin (1), artemisinin, reference compound]					10 ± 1.1	activity against P388 leukemia (P388 leukemia): inactive
C[C@H]1[C@@H](CCC(=O)Nc2cccc([S+](C)[O-])c2)O[C@@H]2O[C@]3(C)CC[C@H]4[C@H](C)CC[C@@H]1[C@@]24OO3 (stereo partly shown) [12h]	30	>99.9			29 ± 0.43	cure outcome (survival to day 30 with no detectable parasites = complete cure) [1]: partially curative; parasitemia on day 30 after infection in surviving mice [1, 6]: ^eOne mouse had 1.8% parasitemia on day 30 after infection.
C[C@H]1[C@@H](CCC(=O)Nc2cccc(S(C)(=O)=O)c2)O[C@@H]2O[C@@]3(C)CC[C@H]4[C@H](C)CC[C@@H]1[C@@]24OO3 [12j]			99.9	15.5	21 ± 1.1	
CO[C@H]1O[C@@H]2O[C@@]3(C)CC[C@H]4[C@H](C)CC[C@@H]([C@H]1C)[C@@]24OO3 [artemether (2b), artemether, reference compound]	18.8	>99.9	>99.9	19.8		% suppression of parasitemia (on day 3 after infection) [1, 9]: >99.9%; average survival (days) after infection [1, 9]: 12.5 days
CSc1cc(NC(=O)CC[C@H]2O[C@@H]3O[C@@]4(C)CC[C@H]5[C@H](C)CC[C@@H]([C@H]2C)[C@@]35OO4)cc(SC)c1 [12f, 3,5-arteSSanilide]	30	>99.9			6.5 ± 0.28	inhibition in vivo at 100 mg/kg [1, 10]: 97.9%; mouse survival in words ([1]; no mefloquine): essentially no increase in mouse longevity; cure outcome (survival to day 30 with no detectable parasites = complete cure) [1]: partially curative; parasitemia on day 30 after infection in surviving mice [1, 6]: 5% and ^dThree mice were parasite-free on day 30, but one mouse had 5% parasitemia on day 30 after infection.; average survival (days) after infection [1, 11]: 7.5 days; toxicity of single oral dose [3]: nontoxic
C[C@H]1[C@@H](CCC(=O)Nc2ccccc2S(C)(=O)=O)O[C@@H]2O[C@]3(C)CC[C@H]4[C@H](C)CC[C@@H]1[C@@]24OO3 [12k]			>99.9	22.8		
CSc1ccc(NC(=O)CC[C@H]2O[C@@H]3O[C@@]4(C)CC[C@H]5[C@H](C)CC[C@@H]([C@H]2C)[C@@]35OO4)cc1 [12c, 4-arteSanilide]			>99.9	16.3		
CCCCCCOc1ccc(NC(=O)CC[C@H]2O[C@@H]3O[C@]4(C)CC[C@H]5[C@H](C)CC[C@@H]([C@H]2C)[C@@]35OO4)cc1 [12q]			>99.9	15.0		
C[C@H]1[C@@H](CCC(=O)Nc2ccc(S(C)(=O)=O)cc2Cl)O[C@@H]2O[C@]3(C)CC[C@H]4[C@H](C)CC[C@@H]1[C@@]24OO3 [12o]			>99.9	24.5		
C[C@H]1[C@@H](CCC(=O)Nc2cccc([S+](C)[O-])c2)O[C@@H]2O[C@@]3(C)CC[C@H]4[C@H](C)CC[C@@H]1[C@@]24OO3 (stereo partly shown) [12g]	23.0	>99.9			23 ± 1.3	cure outcome (survival to day 30 with no detectable parasites = complete cure) [1]: does not
CCCSc1cccc(NC(=O)CC[C@H]2O[C@@H]3O[C@]4(C)CC[C@H]5[C@H](C)CC[C@@H]([C@H]2C)[C@@]35OO4)c1 [12l]	23.0	>99.9				
CSc1cccc(NC(=O)CC[C@H]2O[C@@H]3O[C@@]4(C)CC[C@H]5[C@H](C)CC[C@@H]([C@H]2C)[C@@]35OO4)c1 [12d, 3-arteSanilide]	30	>99.9	>99.9	30	9.1 ± 0.57	inhibition in vivo at 100 mg/kg [1, 10]: 97.2%; parasitemia in uninfected mice inoculated with blood from the cured mice ([1]; donors: 6 mg/kg trioxane + 18 mg/kg mefloquine, read after 30 days): no parasitemia was detected; mouse survival in words ([1]; no mefloquine): prolonged mouse survival; cure outcome (survival to day 30 with no detectable parasites = complete cure) [1]: complete cure; also recorded: cures malaria-infected mice; parasitemia on day 30 after infection in surviving mice [1, 6]: ^bNo parasitemia detected on day 30 after infection.; average survival (days) after infection [1, 11]: 15.0 days; time stable, neat [4]: at least 7 days; weight gain by day 30 after infection ([3]; 6 mg/kg trioxane + 18 mg/kg mefloquine, compared with uninfected control mice): gained as much weight by day 30 after infection (data not shown) as the uninfected control mice; also recorded: gain as much weight as the control mice; overt toxicity or behavioral change attributable to trioxane administration ([3]; malaria-infected mice cured by trioxane combined with mefloquine hydrochloride): neither overt toxicity nor behavioral change; toxicity of single oral dose [3]: nontoxic
Cl.OC(c1cc(C(F)(F)F)nc2c(C(F)(F)F)cccc12)C1CCCCN1 (stereo not shown) [mefloquine, mefloquine hydrochloride, reference compound]						% suppression of parasitemia (on day 3 after infection) [1, 12]: >99.9%; average survival (days) after infection [1, 12]: 15.5 days; % suppression of parasitemia (on day 3 after infection) [1, 13]: >99.9%; average survival (days) after infection [1, 13]: 19.8 days
CCCCN(CCCC)CC(O)c1cc(Cl)cc2c1-c1ccc(Cl)cc1/C2=C/c1ccc(Cl)cc1 (stereo not shown) [lumefantrine, reference compound]						inhibition in vivo at 18 mg/kg ([1]; Plasmodium berghei, po, 72 h, read-out: % suppression of parasitemia (on day 3 after infection)): > 99.9%; average survival (days) after infection ([1]; lumefantrine alone, single oral dose 18 mg/kg): 21.5 days
CSc1ccccc1NC(=O)CC[C@H]1O[C@@H]2O[C@@]3(C)CC[C@H]4[C@H](C)CC[C@@H]([C@H]1C)[C@@]24OO3 [12e, 2-arteSanilide]	27.0	>99.9				
CCCS(=O)(=O)c1cccc(NC(=O)CC[C@H]2O[C@@H]3O[C@]4(C)CC[C@H]5[C@H](C)CC[C@@H]([C@H]2C)[C@@]35OO4)c1 [12m]	11.0	>99.9				
